Laboratory results taken from paper doi:10.1101/2025.11.04.686469, “Discovery of Host-Directed Small Molecules with Broad Anti-Leishmanial Efficacy” (bioRxiv, 2025).

Tested on: THP-1 macrophages
Test: Effect of compounds on host cell viability (MTT)
Format: cell-based
Conditions: read-out: 24h LC50; THP1 macrophages, 24-hour incubation, MTT assay (Supplemental Table 2)
Experimental: The cells were cultured at 37C, 5% CO2 in RPMI medium (ATCC) supplemented with 10% FBS, 1% Penicillin/Streptomycin and 0.05 mM of β-mercaptoethanol. Cells were used in experiments up to passage 10.
Effect of the compounds on THP-1 cell viability measured using thiazolyl blue tetrazolium bromide which measures cell metabolic activity (MTT). THP-1 cells were seeded in a 96 well plate (25,000 cells/well) overnight then differentiated with 150 nM phorbol 12-myristate 13-acetate (PMA) over 72 hours. Macrophages were then treated with compounds resuspended in RPMI media (1- 50 μM) for 24 hours. Media was replaced with thiazolyl blue tetrazolium bromide solubilized in RPMI media (0.5 mg/mL) and incubated at 37°C for 2 hours. The reduced formazan crystals were solubilized with isopropyl alcohol and the absorbance of the resulting solution was measured at 560 nm with a background subtraction at 670 nm. […] This process was repeated with a 72-hr incubation and extended concentration range (1 - 300 μM) for select compounds.

Row | SMILES | CC50 [µM]
1 | FC(F)(F)c1ccc(-c2ccc(-c3cc(C(F)(F)F)nn3-c3ccc(Br)cc3)cc2)cc1 [Compound 2] | > 50
2 | FC(F)(F)c1ccc(-c2ccc(-c3cc(C(F)(F)F)nn3-c3ccc(NC4CN(C(c5ccccc5)c5ccccc5)C4)cc3)cc2)cc1 [Compound 4] | > 50
3 | O=C(OCc1ccccc1)N1CCC(Nc2ccc(-n3nc(C(F)(F)F)cc3-c3ccc(-c4ccc(C(F)(F)F)cc4)cc3)cc2)C1 (centres unmarked) [Compound 6] | > 50
4 | O=[N+]([O-])c1ccc(-n2nc(C(F)(F)F)cc2-c2ccc(-c3ccc(C(F)(F)F)cc3)cc2)cc1 [Compound 9] | > 50
5 | FC(F)(F)c1ccc(-c2ccc(-c3cc(C(F)(F)F)nn3-c3ccc(N4CCC(NCc5ccccc5Cl)C4)cc3)cc2)cc1 (centres unmarked) [Compound 12] | > 50
6 | FC(F)(F)c1ccc(-c2ccc(-c3cc(C(F)(F)F)nn3-c3ccc(N4CCC(NCc5cccc(Cl)c5Cl)C4)cc3)cc2)cc1 (centres unmarked) [Compound 13] | > 50
7 | COc1ccc(CNC2CCN(c3ccc(-n4nc(C(F)(F)F)cc4-c4ccc(-c5ccc(C(F)(F)F)cc5)cc4)cc3)C2)cc1 (centres unmarked) [Compound 14] | 50
8 | CC(C)(C)OC(=O)N1CCC(Nc2ccc(-n3nc(C(F)(F)F)cc3-c3ccc(-c4ccc(C(F)(F)F)cc4)cc3)cc2)C1 (centres unmarked) [Compound 15] | > 50
9 | FC(F)(F)c1ccc(-c2ccc(-c3cc(C(F)(F)F)nn3-c3ccc(N4CCC(NCc5ccccc5)C4)cc3)cc2)cc1 (centres unmarked) [Compound 16] | > 50
10 | FC(F)(F)c1ccc(-c2ccc(-c3cc(C(F)(F)F)nn3-c3ccc(N4CCC(NCc5ccc6ccccc6c5)C4)cc3)cc2)cc1 (centres unmarked) [Compound 17] | > 50
11 | N#Cc1ccc(CNC2CCN(c3ccc(-n4nc(C(F)(F)F)cc4-c4ccc(-c5ccc(C(F)(F)F)cc5)cc4)cc3)C2)cc1 (centres unmarked) [Compound 19] | > 50
12 | FC(F)(F)c1ccc(-c2ccc(-c3cc(C(F)(F)F)nn3-c3ccc(N4CCC(NCc5cccs5)C4)cc3)cc2)cc1 (centres unmarked) [Compound 20] | > 50
13 | Fc1ccccc1CNC1CCN(c2ccc(-n3nc(C(F)(F)F)cc3-c3ccc(-c4ccc(C(F)(F)F)cc4)cc3)cc2)C1 (centres unmarked) [Compound 21] | > 50
14 | CC(C)(C)OC(=O)NC1CN(c2ccc(-n3nc(C(F)(F)F)cc3-c3ccc(-c4ccc(C(F)(F)F)cc4)cc3)cc2)C1 [Compound 22] | > 50
15 | FC(F)(F)c1ccc(CNC2CCN(c3ccc(-n4nc(C(F)(F)F)cc4-c4ccc(-c5ccc(C(F)(F)F)cc5)cc4)cc3)C2)cc1 (centres unmarked) [Compound 24] | > 50
16 | COc1ccc(-n2nc(C(F)(F)F)cc2-c2ccc(-c3ccc(C(F)(F)F)cc3)cc2)cc1 [Compound 26] | 5.8
17 | Oc1ccc(-n2nc(C(F)(F)F)cc2-c2ccc(-c3ccc(C(F)(F)F)cc3)cc2)cc1 [Compound 27] | > 50
18 | CC(C)(C)OC(=O)N1CCC(Oc2ccc(-n3nc(C(F)(F)F)cc3-c3ccc(-c4ccc(C(F)(F)F)cc4)cc3)cc2)CC1 [Compound 28] | > 50
19 | O=[N+]([O-])c1ccc(-n2cc(C(F)(F)F)nc2-c2ccc(Cl)cc2)cc1 [Compound 29] | > 50
20 | Nc1ccc(-n2cc(C(F)(F)F)nc2-c2ccc(Cl)cc2)cc1 [Compound 30] | > 50
21 | FC(F)(F)c1c[nH]c(-c2ccc(-c3ccccc3)cc2)n1 [Compound 31] | > 50
22 | O=[N+]([O-])c1ccc(-n2cc(C(F)(F)F)nc2-c2ccc(-c3ccccc3)cc2)cc1 [Compound 32] | 6.3
23 | Nc1ccc(-n2cc(C(F)(F)F)nc2-c2ccc(-c3ccccc3)cc2)cc1 [Compound 33] | 1.5
24 | FC(F)(F)c1c[nH]c(-c2ccc(Cl)cc2)n1 [Compound 35] | > 50

Row | SMILES | CC50 [µM]
25 | FC(F)(F)c1ccc(-c2ccc(-c3cc(C(F)(F)F)nn3-c3ccc(NC4CCN(Cc5ccc(-c6ccccc6)cc5)C4)cc3)cc2)cc1 (centres unmarked) [Compound 36] | > 50
26 | O=[N+]([O-])c1ccc(-n2nc(C(F)(F)F)cc2-c2ccc(Br)cc2)cc1 [Compound 37] | > 50
27 | O=[N+]([O-])c1ccc(-n2nc(-c3ccc(Br)cc3)cc2C(F)(F)F)cc1 [Compound 38] | > 50
28 | O=[N+]([O-])c1ccc(-n2nc(C(F)(F)F)cc2-c2ccc(C#CC3CC3)cc2)cc1 [Compound 39] | > 50
29 | Nc1ccc(-n2nc(C(F)(F)F)cc2-c2ccc(Br)cc2)cc1 [Compound 40] | > 50
30 | CC(C)(C)OC(=O)N1CCN(c2ccc(-n3nc(C(F)(F)F)cc3-c3ccc(Br)cc3)cc2)CC1 [Compound 41] | > 50
31 | C#Cc1ccc(-c2cc(C(F)(F)F)nn2-c2ccc(N3CCNCC3)cc2)cc1 [Compound 43] | 0.5
32 | FC(F)(F)c1cc(-c2ccc(-c3ccc(S(F)(F)(F)(F)F)cc3)cc2)n(-c2ccc(N3CCNCC3)cc2)n1 [Compound 46] | 10
33 | CC(C)(C)OC(=O)N1CCN(c2ccc(-n3nc(C(F)(F)F)cc3-c3ccc(C#CC(F)(F)F)cc3)cc2)CC1 [Compound 47] | > 50
34 | Cc1ccccc1CNC1CN(c2ccc(-n3nc(C(F)(F)F)cc3-c3ccc(-c4ccc(C(F)(F)F)cc4)cc3)cc2)C1 [Compound 48] | > 50
35 | FC(F)(F)c1ccc(-c2ccc(-c3cc(C(F)(F)F)nn3-c3ccc(NC4CCN(Cc5cccc(Cl)c5Cl)C4)cc3)cc2)cc1 (centres unmarked) [Compound 52] | > 50
36 | CC(C)(C)OC(=O)N1CC(Nc2ccc(-n3nc(C(F)(F)F)cc3-c3ccc(-c4ccc(C(F)(F)F)cc4)cc3)cc2)C1 [Compound 56] | > 50
37 | CCCCNc1ccc(-n2nc(C(F)(F)F)cc2-c2ccc(-c3ccc(C(F)(F)F)cc3)cc2)cc1 [Compound 57] | > 50
38 | O=C(c1ccc(F)cc1)N1CCC(Nc2ccc(-n3nc(C(F)(F)F)cc3-c3ccc(-c4ccc(C(F)(F)F)cc4)cc3)cc2)C1 (centres unmarked) [Compound 59] | > 50
39 | CCCCCCNc1ccc(-n2nc(C(F)(F)F)cc2-c2ccc(-c3ccc(C(F)(F)F)cc3)cc2)cc1 [Compound 60] | > 50
40 | CC(C)C#Cc1ccc(-c2cc(C(F)(F)F)nn2-c2ccc(N3CCC(NCc4ccc(O)cc4)C3)cc2)cc1 (centres unmarked) [Compound 101] | 0.5
41 | CC(C)(C)OC(=O)N1CCC(Nc2ccc(-n3nc(C(F)(F)F)cc3-c3ccccc3C(F)(F)F)cc2)C1 (centres unmarked) [Compound 259] | 23.6
42 | FC(F)(F)c1cc(-c2ccc(Cl)c(Cl)c2)n(-c2ccc(NC3CCNC3)cc2)n1 (centres unmarked) [Compound 261] | 22.4
43 | FC(F)(F)c1cc(C2CC2)n(-c2ccc(Br)cc2)n1 [Compound 266] | > 50
44 | FC(F)(F)c1cc(-c2ccco2)n(-c2ccc(Br)cc2)n1 [Compound 267] | > 50
45 | CC(C)(C)OC(=O)N1CCC(Nc2ccc(-n3nc(C(F)(F)F)cc3C3CC3)cc2)C1 (centres unmarked) [Compound 268] | > 50
46 | CC(C)(C)OC(=O)N1CCC(Nc2ccc(-n3nc(C(F)(F)F)cc3-c3ccco3)cc2)C1 (centres unmarked) [Compound 269] | > 50
47 | Cc1cc(C(F)(F)F)n(-c2ccc(Br)cc2)n1 [Compound 274] | > 50
48 | Cc1cc(C(F)(F)F)nn1-c1ccc(Br)cc1 [Compound 275] | > 50

Row | SMILES | CC50 [µM]
49 | FC(F)(F)c1cc(C(F)(F)F)n(-c2ccc(Br)cc2)n1 [Compound 276] | 32.2
50 | CC(C)c1cc(C(F)(F)F)nn1-c1ccc(Br)cc1 [Compound 277] | > 50
51 | Fc1cccc([C@@H]2CCCN2)c1 [Compound 278] | > 50
52 | FC(F)c1cc(-c2ccc(-c3ccc(C(F)(F)F)cc3)cc2)n(-c2ccc(Br)cc2)n1 [Compound 279] | > 50
53 | CCc1cc(-c2ccc(-c3ccc(C(F)(F)F)cc3)cc2)n(-c2ccc(Br)cc2)n1 [Compound 280] | > 50
54 | Cc1cc(C(F)(F)F)n(-c2ccc(NC3CCN(C(=O)OC(C)(C)C)C3)cc2)n1 (centres unmarked) [Compound 282] | > 50
55 | CC(C)(C)OC(=O)N1CCC(Nc2ccc(-n3nc(C(F)(F)F)cc3C(F)(F)F)cc2)C1 (centres unmarked) [Compound 283] | > 50
56 | Cc1cc(C(F)(F)F)n(-c2ccc(NC3CCNC3)cc2)n1 (centres unmarked) [Compound 284] | > 50
57 | Fc1cccc(CNC2CCN(c3ccc(-n4nc(C(F)(F)F)cc4C4CCCCC4)cc3)C2)c1 (centres unmarked) [Compound 285] | > 50
58 | CC(C)c1cc(C(F)(F)F)nn1-c1ccc(NC2CCN(C(=O)OC(C)(C)C)C2)cc1 (centres unmarked) [Compound 286] | > 50
59 | N#Cc1ccc(-n2cc(C(F)(F)F)nc2-c2ccc(Br)cc2)c(F)c1 [Compound 291] | > 50
60 | FC(F)(F)c1ccc(-c2nc(C(F)(F)F)cn2CC2CCNC2)cc1 (centres unmarked) [Compound 292] | > 50
61 | OCCn1nc(C(F)(F)F)cc1-c1ccc(C(F)(F)F)cc1 [Compound 293] | > 50
62 | FC(F)(F)c1ccc(-c2cc(C(F)(F)F)nn2CCNC2CCN(Cc3ccccc3)C2)cc1 (centres unmarked) [Compound 294] | 28.2
63 | NCC(=O)NCCn1cc(C(F)(F)F)nc1-c1ccc(C(F)(F)F)cc1 [Compound 295] | > 50
64 | NCC(=O)Nc1ccc(-n2cc(C(F)(F)F)nc2-c2ccccc2C(F)(F)F)cc1 [Compound 297] | > 50
65 | NCC(=O)Nc1ccc(-n2cc(C(F)(F)F)nc2-c2ccc(OC(F)(F)F)cc2)cc1 [Compound 299] | 31.6
66 | Cc1cc(C(F)(F)F)nn1-c1ccc(NC2CCNC2)cc1 (centres unmarked) [Compound 313] | > 50
67 | CCc1cc(C(F)(F)F)nn1-c1ccc(Br)cc1 [Compound 316] | > 50
68 | CCc1cc(C(F)(F)F)nn1-c1ccc(NC2CCN(C(=O)OC(C)(C)C)C2)cc1 (centres unmarked) [Compound 317] | > 50
69 | NC(=O)CN1c2ccccc2C2CCCC21 (centres unmarked) [Compound 320] | > 50
70 | Fc1cccc(CN2CCC(Nc3ccc(-n4nc(C(F)(F)F)cc4C4CCCCC4)cc3)CC2)c1 [Compound 322] | > 50
71 | NCC(=O)Nc1ccc(-n2cc(C(F)(F)F)nc2C2CCCCC2)cc1 [Compound 327] | > 50
